Assay results taken from US20150119363A1, “METHODS OF TREATING BACTERIAL INFECTIONS” (Rampex Pharmaceuticals, Inc., priority 2012, published 2015).
Like-named read-outs stand apart in the source and are kept apart here.

Columns and labels:
EC1007 KPC-3 = test: Dose titration biapenem potentiation assay (MPC1); type: cell-based, Escherichia coli; settings: biapenem 1 μg/mL
Experimental: (§1) The potency and spectrum of β-lactamase inhibitors is also determined by assessing their biapenem potentiation activity in a dose titration potentiation assay using strains expressing serine carbapemenases (such as KPC). The potentiation effect is observed as the ability of BLI compounds to inhibit growth in the presence of sub-inhibitory concentration of biapenem. […] Biapenem is present in the test medium at 1 μg/mL. Compounds tested at the highest concentration of 40 μg/mL. […] Table 5 summarizes BLI potency of biapenem potentiation (MPC1). Biapenem MIC for each strain is also shown.

[1] = biological target: T1, KPC-2 (Klebsiella pneumoniae KP1004 lysate) (Klebsiella pneumoniae, UniProt Q9F663); test: Inhibition of biapenem hydrolysis by bacterial lysate; type: biochemical
T1 construct: Lysates were prepared from bacteria expressing various β-lactamases as a source of enzymes; endogenous in cells; host or cells: Klebsiella pneumoniae strains KP1004 and KP1008 (freeze-thaw lysate supernatants)
T1 sequence (Q9F663 25-293 limits assumed): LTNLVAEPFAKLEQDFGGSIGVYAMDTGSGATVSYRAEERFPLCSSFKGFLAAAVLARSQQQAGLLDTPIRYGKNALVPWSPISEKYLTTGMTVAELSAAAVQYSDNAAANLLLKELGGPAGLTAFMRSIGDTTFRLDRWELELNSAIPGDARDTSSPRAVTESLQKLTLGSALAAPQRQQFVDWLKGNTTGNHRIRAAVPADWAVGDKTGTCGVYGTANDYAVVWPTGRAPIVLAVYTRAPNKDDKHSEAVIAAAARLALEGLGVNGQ
Experimental: (§2) The activity of β-lactamase inhibitors to inhibit hydrolysis of biapenem was studied. Lysates were prepared from bacteria expressing various β-lactamases as a source of enzymes. Bacterial lysates were prepared as follows. A single colony from the fresh overnight plate was transferred to 5 mL of LB broth and grown to OD600=0.6-0.8. Next, this culture was transferred to 500 mL of LB and grown to OD600=0.7-0.9. Cells were pelleted by centrifugation at 5000 RPM (JA-14 rotor) for 15 minutes at room temperature. The pellet was resuspended in 10 mL of PBS. Five freeze-thaw cycles by putting cells at −20° C. and thawing them at the room temperature were next applied. After the last thaw step cells were spun down at 18K for 30 minutes and the supernatant was collected. This lysate was stored at −20° C.
(§3) Next, the activity of bacterial lysates was optimized for biapenem cleavage as follows. 50 μl of buffer A (50 mM Sodium Phosphate pH=7; 0.5% glucose, 1 mM MgCl2) was added to each well of 96-well UV-transparent plate. 50 μl of lysate was titrated vertically in 96-well plate column to generate 2-fold lysate dilutions. 100 μl of buffer A was added to each well, placed in plate reader at 37° C. and incubated for 15 minutes. 50 μl of 50 μg/mL solutions of biapenem in buffer A (pre-incubated at 37° C. for 15 minutes) were added to each well. Hydrolysis of biapenem was measured at 296 nm. This experiment was used to determine the optimal lysate dilution which produced a linear curve of relative UV signal that decreased to approximately OD=0.3-0.5 over 1 hour.
(§4) Finally, the potency of cyclic boronic acid derivative to inhibit the cleavage of biapenem cleavage by bacterial lysates was determined. 100 μl of buffer A (50 mM Sodium Phosphate pH=7; 0.5% glucose, 1 mM MgCl2) was added to each well of 96-well UV-transparent plate. 50 μl of 6× cyclic boronic acid derivative solution in buffer A was titrated vertically in 96-well plate column to generate 3-fold dilutions. 50 μl of diluted lysate in buffer A (optimal dilution is determined in experiment above) was added, and the plate was incubated in the plate reader at 37° C. for 15 minutes. 50 μl of 50 μg/mL solution of biapenem in buffer A (pre-incubated at 37° C. for 15 minutes) were next added to each well and hydrolysis of biapenem was recorded at 296 nm. EC50 of inhibition was determined by plotting the rate of biapenem cleavage vs. cyclic boronic acid derivative concentration.

[2] = biological target: T2, SME-2 (Serratia marcescens SM1000 lysate) (Serratia marcescens, UniProt P52682); test: as above; type: biochemical
T2 construct: Lysates were prepared from bacteria expressing various β-lactamases as a source of enzymes
T2 sequence (P52682 28-294 limits assumed): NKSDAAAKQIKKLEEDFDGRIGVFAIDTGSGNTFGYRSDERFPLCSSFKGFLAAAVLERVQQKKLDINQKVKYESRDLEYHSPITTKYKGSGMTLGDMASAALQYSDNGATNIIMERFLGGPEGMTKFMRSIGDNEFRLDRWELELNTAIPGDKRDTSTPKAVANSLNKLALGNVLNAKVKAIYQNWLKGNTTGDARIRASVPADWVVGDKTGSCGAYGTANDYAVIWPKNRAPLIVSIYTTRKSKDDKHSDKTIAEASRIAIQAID
Experimental: as §2, §3, §4

[3] = biological target: T3, KPC-3 (Escherichia coli EC1007 lysate) (Klebsiella pneumoniae, UniProt Q9F663, H272Y); test: as above; type: biochemical
T3 construct: Lysates were prepared from bacteria expressing various β-lactamases as a source of enzymes; endogenous in cells; host or cells: Escherichia coli strain EC1007 (freeze-thaw lysate supernatant)
T3 sequence (Q9F663 25-293 H272Y): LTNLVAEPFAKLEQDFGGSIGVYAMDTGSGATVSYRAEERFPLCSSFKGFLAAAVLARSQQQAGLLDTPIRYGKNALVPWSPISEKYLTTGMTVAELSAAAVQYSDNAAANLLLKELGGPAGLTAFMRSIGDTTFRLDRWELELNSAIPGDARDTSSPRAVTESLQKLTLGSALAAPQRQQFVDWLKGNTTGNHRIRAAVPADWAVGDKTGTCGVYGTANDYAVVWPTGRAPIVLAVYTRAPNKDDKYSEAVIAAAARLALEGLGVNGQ
Experimental: as §2, §3, §4

[4] = biological target: T4, KPC-2 (Klebsiella pneumoniae KP1008 lysate) (Klebsiella pneumoniae, UniProt Q9F663); test: as above; type: biochemical
T4 construct: Lysates were prepared from bacteria expressing various β-lactamases as a source of enzymes; endogenous in cells; host or cells: Klebsiella pneumoniae strains KP1004 and KP1008 (freeze-thaw lysate supernatants)
T4 sequence (Q9F663 25-293 limits assumed): as the sequence (Q9F663 25-293 limits assumed) above
Experimental: as §2, §3, §4

KP1004 KPC-2 = test: Dose titration biapenem potentiation assay (MPC1); type: cell-based, Klebsiella pneumoniae; settings: biapenem 1 μg/mL
Experimental: as §1

KP1008 KPC-2 = test: Dose titration biapenem potentiation assay (MPC1); type: cell-based, Klebsiella pneumoniae; settings: biapenem 1 μg/mL
Experimental: as §1

ECL1004 NMC-A = test: Dose titration biapenem potentiation assay (MPC1); type: cell-based, Enterobacter cloacae; settings: biapenem 1 μg/mL
Experimental: as §1

[5] = test system: Acinetobacter baumannii AB1054 (OXA-23); test: Checkerboard assay, biapenem potentiation (MPC8); type: cell-based; settings: concentration to reduce biapenem MIC 8-fold
Experimental: (§5) The potency and spectrum of β-lactamase inhibitors was determined by assessing their antibiotic potentiation activity.
(§6) The potentiation effect is observed by the reduction of the minimum inhibitory concentration of β-lactam antibiotics in the presence of β-lactamase inhibitors (BLIs). […] Methods for Dilution of Antimicrobial Susceptibility Tests for Bacteria That Grow Aerobically—Eighth Edition; Approved Standard. CLSI Document M07-A8, 2009). In this assay, multiple dilutions of two drugs, namely BLI and β-lactam (biapenem), are being tested, alone and in combination, at concentrations equal to, above and below their respective minimal inhibitory concentrations (MICs). BLIs are solubilized in 10% DMSO at 10 mg/mL. Stock solutions are further diluted, according to the needs of a particular assay, in Mueller Hinton Broth (MHB). Stock solution can be stored at −80° C.
(§7) The checkerboard (CB) assay is performed in microtiter plates. Biapenem is diluted in the x axis, each column containing a single concentration of antibiotic. BLIs are diluted in the y axis, each row containing an equal concentration of BLI. The result of these manipulations is that each well of the microtiter plate contains a unique combination of concentrations of the two agents. The assay is performed in MHB with a final bacterial inoculum of 5×10^5 CFU/mL (from an early-log phase culture). Microtiter plates are incubated during 20 h at 35° C. and are read using a microtiter plate reader (Molecular Devices) at 650 nm as well as visual observation using a microtiter plate reading mirror.
(§8) Biapenem is a carbapenem β-lactam; only selected β-lactamases confer resistance to this class of antibiotics. Among them are serine carbapemenases that belong to class A and class D. Biapenem potentiation is studied in strains expressing various carbapenemases from these classes using CB assays. […] Cyclic boronic acid derivatives were capable of reducing biapenem MICs up to 1000-fold (Table 3).

[6] = test system: Acinetobacter baumannii AB1057 (OXA-58); test: Checkerboard assay, biapenem potentiation (MPC8); type: cell-based; settings: concentration to reduce biapenem MIC 8-fold
Experimental: as §5, §6, §7, §8

[7] = test system: Klebsiella pneumoniae KP1004 (KPC-2); test: Checkerboard assay, biapenem potentiation (MPC8); type: cell-based; settings: concentration to reduce biapenem MIC 8-fold
Experimental: as §5, §6, §7, §8

| Structure (SMILES) | BPM MPC1 EC1007 KPC-3 (EC1007 KPC-3) | IC50 [1] | IC50 ([2]; SM1000 SME-2 lysate; read-out: IC50 (μg/mL) of inhibition of biapenem hydrolysis) | IC50 ([3]; EC1007 KPC-3 lysate, read-out: IC50 (μg/mL) of inhibition of biapenem hydrolysis) | IC50 [4] | BPM MPC1 KP1004 KPC-2 (KP1004 KPC-2) | BPM MPC1 KP1008 KPC-2 (KP1008 KPC-2) | BPM MPC1 ECL1004 NMC-A (ECL1004 NMC-A) | MPC8 [5] | MPC8 [6] | MPC8 [7] | BPM MPC1 EC1007 KPC-3 (EC1007 KPC-3; numeric value) | IC50 ([2]; read-out: IC50 (μg/mL) of inhibition of biapenem hydrolysis; SM1000 SME-2 lysate) | IC50 [3] | BPM MPC1 KP1004 KPC-2 (KP1004 KPC-2; numeric value) | BPM MPC1 KP1008 KPC-2 (KP1008 KPC-2; numeric value) | BPM MPC1 ECL1004 NMC-A (ECL1004 NMC-A; numeric value) |
| --- | --- | --- | --- | --- | --- | --- | --- | --- | --- | --- | --- | --- | --- | --- | --- | --- | --- |
| O=C(O)C[C@@H]1CC[C@H](NC(=O)Cc2ccccc2)B(O)O1 [Compound 6, 2-((3R,6S)-2-hydroxy-3-(2-phenylacetamido)-1,2-oxaborinan-6-yl)acetic acid] | X (X = MPC1 of less than 1 μg/mL.) | 0.344 to 3.44 µM | 0.344 to 3.44 µM | < 0.344 µM | 0.344 to 3.44 µM | X (X = MPC1 of less than 1 μg/mL.) | X (X = MPC1 of less than 1 μg/mL.) | X (X = MPC1 of less than 1 μg/mL.) | X (X = MPC8 of less than 0.16 μg/mL.) | Z (Z = MPC8 of greater than 1 μg/mL.) | X (X = MPC8 of less than 0.16 μg/mL.) | – | – | – | – | – | – |
| O=C(O)CC1CC[C@H](NC(=O)Cc2ccccc2)B(O)O1 (stereo partly drawn) [Compound 2, 2-((3R)-2-hydroxy-3-(2-phenylacetamido)-1,2-oxaborinan-6-yl)acetic acid] | – | – | – | – | – | – | – | – | – | – | X (X = MPC8 of less than 0.16 μg/mL.) | – | – | – | – | – | – |
| C[C@]1(Cn2ccnn2)[C@H](C(=O)O)N2C(=O)C[C@H]2S1(=O)=O [Tazobactam, reference compound] | – | > 3.33 µM | – | – | > 3.33 µM | – | – | – | – | – | – | 5 µg/mL | 0.333 to 3.33 µM | > 3.33 µM | 40 µg/mL | 0.3 µg/mL | 0.6 µg/mL |
